Reference: patent US3941763A, “PGlu-D-Met-Trp-Ser-Tyr-D-Ala-Leu-Arg-Pro-Gly-NH2 and intermediates” (American Home Products Corporation, priority 1975, dated 1976)
Non-standard residues stand in square brackets, D forms with d. Residues, ends and D or L forms follow the SMILES beside them. pGlu = O=C1CC[C@@H](C(=O)O)N1

Assays:
[1] = system: rat pituitary tissue cultures; test: Inhibition of LRH-induced release of LH in vitro in rat pituitary tissue cultures; type: cell-based
Method: LH concentration is determined by double-antibody radioimmunoassay.

[2] = system: LRH-induced release of LH; test: Inhibition of LRH-induced release of LH in vivo in rats; set-up: species or system Male Sprague-Dawley rats
Method: Male Sprague-Dawley rats are divided into two groups of at least 5 animals in each group. One group receives the test compound. The other is the control group (no test compound). At zero time, the test group receives a 100-ng dose (subcutaneous) of D--Met^2 --D--Ala^6 --LRH in 0.2 ml. of physiological saline, while the control group receives a 0.2 ml. dose of physiological saline alone. At 20 minutes, blood samples are removed by cardiac puncture, and LH concentration is determined by double-antibody radioimmunoassay. At 45 minutes, the zero-time dose is repeated for each group of animals. At 50 minutes, the animals in each group are given a 200-ng dose (subcutaneous) of LRH in 0.2 ml. of physiological saline. A second blood sample is removed by cardiac puncture at 70 minutes and LH concentration is determined.

CSCC[C@@H](NC(=O)[C@@H]1CCC(=O)N1)C(=O)N[C@@H](Cc1c[nH]c2ccccc12)C(=O)N[C@@H](CO)C(=O)N[C@@H](Cc1ccc(O)cc1)C(=O)N[C@H](C)C(=O)N[C@@H](CC(C)C)C(=O)N[C@@H](CCCNC(=N)N)C(=O)N1CCC[C@H]1C(=O)NCC(=O)O [D--Met^2 --D--Ala^6 --LRH, L-Pyroglutamyl-D-methionyl-L-tryptophyl-L-seryl-L-tyrosyl-D-alanyl-L-leucyl-L-arginyl-L-prolyl-glycine] ([pGlu][dM]WSY[dA]LRPG-OH)
LH concentration ([1]; LRH 5 ng/ml + D-Met2-D-Ala6-LRH 10 ng/ml, double-antibody radioimmunoassay): 308 ± 2 ng/mL
LH concentration ([1]; LRH 5 ng/ml + D-Met2-D-Ala6-LRH 100 ng/ml, double-antibody radioimmunoassay): 143 ± 2 ng/mL
LH concentration ([1]; LRH 5 ng/ml + D-Met2-D-Ala6-LRH 1000 ng/ml, double-antibody radioimmunoassay): 92 ± 2 ng/mL
LH Plasma Conc. ([2]; time 20 minutes, before LRH administration, 100 ng s.c. test compound at zero time): 10 ± 4 ng/mL
LH Plasma Conc. ([2]; time 70 minutes, after LRH administration (200 ng s.c. at 50 min), 100 ng s.c. test compound at 0 and 45 min): 25 ± 5 ng/mL

CC(C)C[C@H](NC(=O)CNC(=O)[C@H](Cc1ccc(O)cc1)NC(=O)[C@H](CO)NC(=O)[C@H](Cc1c[nH]c2ccccc12)NC(=O)[C@H](Cc1c[nH]cn1)NC(=O)[C@@H]1CCC(=O)N1)C(=O)N[C@@H](CCCNC(=N)N)C(=O)N1CCC[C@H]1C(=O)NCC(N)=O [LRH, L--pGlu--His--Trp--Ser--Tyr--Gly--Leu--Arg--Pro--Gly--NH2, reference compound]
LH concentration ([1]; LRH 5 ng/ml alone, no test compound): 282 ± 11 ng/mL
